Test results taken from ChEMBL document CHEMBL4321810, “Structural Characterization of Agonist Binding to an A3 Adenosine Receptor through Biomolecular Simulations and Mutagenesis Experiments” (J Med Chem, 2019).
Numbering of substitutions follows the chain as printed. Active and inactive are the calls of the source.

What was measured:
[1] = test system: T1, Adenosine receptor A3 (Homo sapiens), P0DMS8 [F168A]
T1 sequence (whole entry): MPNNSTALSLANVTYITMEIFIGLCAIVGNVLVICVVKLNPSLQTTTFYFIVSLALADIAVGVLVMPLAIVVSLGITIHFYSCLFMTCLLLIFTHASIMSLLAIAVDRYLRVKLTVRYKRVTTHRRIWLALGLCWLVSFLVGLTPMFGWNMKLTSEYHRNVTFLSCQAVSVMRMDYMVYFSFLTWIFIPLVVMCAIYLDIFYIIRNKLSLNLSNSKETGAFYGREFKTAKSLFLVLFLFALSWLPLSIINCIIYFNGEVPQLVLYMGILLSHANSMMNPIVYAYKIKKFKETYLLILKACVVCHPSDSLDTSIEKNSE

[2] = test system: T2, Adenosine receptor A3 (Homo sapiens), P0DMS8 [H272A]
T2 sequence (whole entry): T1 sequence (whole entry) with A168F, H272A

[3] = test system: T3, Adenosine receptor A3 (Homo sapiens), P0DMS8 [I268A]
T3 sequence (whole entry): T1 sequence (whole entry) with A168F, I268A

[4] = test system: T4, Adenosine receptor A3 (Homo sapiens), P0DMS8 [S271A]
T4 sequence (whole entry): T1 sequence (whole entry) with A168F, S271A

[5] = test system: T5, Adenosine receptor A3 (Homo sapiens), P0DMS8 [N250A]
T5 sequence (whole entry): T1 sequence (whole entry) with A168F, N250A

[6] = test system: T6, Adenosine receptor A3 (Homo sapiens), P0DMS8 [L246A]
T6 sequence (whole entry): T1 sequence (whole entry) with A168F, L246A

Measured: pIC50

CNC(=O)[C@H]1O[C@@H](n2cnc3c(NCc4cccc(I)c4)ncnc32)[C@H](O)[C@@H]1O
inactive: [1] | [2] | Homo sapiens | [3] | [4] | [5] | [6]

CCNC(=O)[C@H]1O[C@@H](n2cnc3c(N)ncnc32)[C@H](O)[C@@H]1O
inactive: [1] | [2] | Homo sapiens | [3] | [4] | [5] | [6]
